The source of these data is US4590189A, “Condensed pyrrolinone derivatives, their production and use” (Takeda Chemical Industries, Ltd., priority 1982, dated 1986).

Structures are written as SMILES. pIC50: −log10 of the molar value.

Broadly, the pIC50 is the negative decadic logarithm of the IC50, by convention in mol/L.

For the assay, the target named is benzodiazepine receptor. In words: Specific benzodiazepine receptor binding: displacement of [^3 H] diazepam in crude mitochondrial fractions of rat cerebral cortex. On the set-up: species or system rat (male SD strain). The note with it: [^3 H] diazepam 2 nM, pH 7.4, 4° C., 20 minutes; read-out: IC50, effect on specific binding of [^3 H] diazepam. The method, then: The pharmacological properties of the compounds (I) of this invention were investigated by determining the substituting power thereof for radioactive diazepam from a benzodiazepine receptor.
Specific benzodiazepine receptor binding was carried out according to the method of C. Braestrup and R. F. Squiras (European J. Pharmacol., Vol. 48, 263-270, 1978). Thus, crude mitochondrial fractions obtained from the cerebral cortex of male SD strain rats 9 to 10 weeks of age were suspended in 50 mM Tris-HCl buffer (pH 7.4) and incubated with one of a series of concentrations of the test compound and [^3 H] diazepam (final concentration 2 nM) at 4° C. for 20 minutes. Then, the suspension was filtered through a Whatman GF/B glass fiber filter and the radioactivity of [^3 H] diazepam on the filter was measured by the liquid scintillation method. The concentration of the test drug which caused a 50% inhibition of [^3 H] diazepam specific binding was taken as the IC50 value.
As for `O=C(CC1c2ccccc2C(=O)N1c1ccc2ccc(Cl)nc2n1)N1CCCCC1` (stereo not drawn), the pIC50 was 9.19.

On to `O=C(CC1C2=C(SCCS2)C(=O)N1c1ccc(Cl)cc1)N1CCCCCC1` (stereo not drawn), for which the pIC50 is 8.24.

Consider `COc1ccc(N2C(=O)C3=C(SCCS3)C2CC(=O)N2CCCCC2)cc1` (stereo not drawn), for which the pIC50 is 8.98.

As for `COc1ccc(N2C(=O)c3ccc(Cl)cc3C2CC(=O)N2CCN(C)CC2)cc1` (stereo not drawn), the pIC50 was 8.70.

Take `CN(Cc1ccccc1)C(=O)CC1c2ccccc2C(=O)N1c1ccccc1` (stereo not drawn): the pIC50 is 7.71.

As for `COc1ccc(N2C(=O)c3ccc(Cl)cc3C2CC(=O)N2CCCCC2)cc1` (stereo not drawn), the pIC50 was 9.10.

Turning to `O=C(CC1c2ccccc2C(=O)N1c1ccc(Cl)cc1)N1CCCCC1` (stereo not drawn), the pIC50 was 8.05.

For `O=C(CC1C2=C(SCCS2)C(=O)N1c1ccc(Cl)cc1)N1CCCCC1` (stereo not drawn), the pIC50 is 8.02.

As for `COc1ccc(N2C(=O)c3ccccc3C2CC(=O)N2CCCCC2)cc1` (stereo not drawn), the negative logarithm of the IC50 (pIC50) is 8.35.

Take `O=C(CC1C2=C(SCCS2)C(=O)N1c1ccccc1)N1CCCCC1` (stereo not drawn): the pIC50 is 8.12.

Turning to `COc1ccc(N2C(=O)c3ccccc3C2CC(=O)N2CCSC2)cc1` (stereo not drawn), the pIC50 is 8.31.

Turning to `COc1ccc(N2C(=O)c3ccc(N)cc3C2CC(=O)N2CCCCC2)cc1` (stereo not drawn), the pIC50 is 8.42.
